Like-named read-outs stand apart in the source and are kept apart here. Each block holds one compound with its values, some of them ahead of it.
Assays:
[1] = Dissolution testing of the monolayer meloxicam/rizatriptan tablet in 0.01 N HCl, Example 4; type: physicochemical; details: monolayer tablet of Example 4, 0.01 N HCl, 75 RPM, 37° C
[2] = cited from earlier work
[3] = Procedure: The effect of varying amounts of potassium carbonate (K2CO3) and sodium bicarbonate (NaHCO3) on the pH of acidic media was tested. The acidic media was chosen to simulate gastric conditions. K2CO3 or NaHCO3 was added to 50 mL of a 0.01 N HCl solution (pH 2). The pH of the solution was measured after addition of the K2CO3 or NaHCO3. Deionized water (240 mL) was then added to the mixture and pH was measured again.
[4] = tested on: moderate and severe migraine; test: Phase 3 placebo- and active-controlled trial (MOMENTUM), patients with inadequate response to prior acute treatments, Example 11
[5] = from 2 hours to 24 hours after dosing

percent dissolved ([1]; 0 min): 0%
percent dissolved ([1]; 15 min): 79%
percent dissolved ([1]; 30 min): 92%
percent dissolved ([1]; 45 min): 93%
percent dissolved ([1]; 60 min): 93%
percent dissolved ([1]; 90 min): 93%
percent dissolved ([1]; 120 min): 94%
Compound: Cc1cnc(NC(=O)C2=C(O)c3ccccc3S(=O)(=O)N2C)s1 [Meloxicam]
AUC0-24 of meloxicam ([2]; 15 mg IV and intramuscular doses, human beings): about 27 μg·hr/mL
reported Tmax ([2]; intramuscular): 60 to 84 min
reported Tmax ([2]; intravenous bolus): ~3 min
reported Tmax ([2]; intravenous infusion): approximately 30 minutes

pH ([3]; 200 mg NaHCO3, 0.01 N HCl + 240 mL water): 5.41
pH ([3]; 200 mg NaHCO3 added to 50 mL 0.01 N HCl): 5.28
pH ([3]; 300 mg NaHCO3, 0.01 N HCl + 240 mL water): 5.89
pH ([3]; 300 mg NaHCO3 added to 50 mL 0.01 N HCl): 5.90
pH ([3]; 400 mg NaHCO3, 0.01 N HCl + 240 mL water): 6.11
pH ([3]; 400 mg NaHCO3 added to 50 mL 0.01 N HCl): 6.44
pH ([3]; 450 mg NaHCO3, 0.01 N HCl + 240 mL water): 6.46
pH ([3]; 450 mg NaHCO3 added to 50 mL 0.01 N HCl): 6.86
pH ([3]; 500 mg NaHCO3, 0.01 N HCl + 240 mL water): 8.33
pH ([3]; 500 mg NaHCO3 added to 50 mL 0.01 N HCl): 8.23
pH ([3]; 750 mg NaHCO3, 0.01 N HCl + 240 mL water): 8.54
pH ([3]; 750 mg NaHCO3 added to 50 mL 0.01 N HCl): 8.30
pH ([3]; 1000 mg NaHCO3, 0.01 N HCl + 240 mL water): 8.60
pH ([3]; 1000 mg NaHCO3 added to 50 mL 0.01 N HCl): 8.36
Compound: O=C([O-])O.[Na+] [NaHCO3, sodium bicarbonate]

pH ([3]; 25 mg K2CO3 added to 50 mL 0.01 N HCl): 2.84
pH ([3]; 35 mg K2CO3 added to 50 mL 0.01 N HCl): 6.29
pH ([3]; 45 mg K2CO3 added to 50 mL 0.01 N HCl): 8.05
pH ([3]; 50 mg K2CO3 added to 50 mL 0.01 N HCl): 8.29
pH ([3]; 100 mg K2CO3 added to 50 mL 0.01 N HCl): 9.43
pH ([3]; 200 mg K2CO3, 0.01 N HCl + 240 mL water): 10.27
pH ([3]; 200 mg K2CO3 added to 50 mL 0.01 N HCl): 10.14
pH ([3]; 300 mg K2CO3, 0.01 N HCl + 240 mL water): 10.46
pH ([3]; 300 mg K2CO3 added to 50 mL 0.01 N HCl): 10.39
pH ([3]; 400 mg K2CO3, 0.01 N HCl + 240 mL water): 10.57
pH ([3]; 400 mg K2CO3 added to 50 mL 0.01 N HCl): 10.55
pH ([3]; 450 mg K2CO3, 0.01 N HCl + 240 mL water): 10.63
pH ([3]; 450 mg K2CO3 added to 50 mL 0.01 N HCl): 10.58
Compound: O=C([O-])[O-].[K+].[K+] [Tablet K2CO3, potassium carbonate]

Compound: Rizatriptan
percent dissolved ([1]; 0 min): 0%
percent dissolved ([1]; 15 min): 89%
percent dissolved ([1]; 30 min): 102%
percent dissolved ([1]; 45 min): 103%
percent dissolved ([1]; 60 min): 103%
percent dissolved ([1]; 90 min): 103%
percent dissolved ([1]; 120 min): 103%
patients experiencing relapse of pain ([4]; 48-hour period after dosing): 45.2%
probability of experiencing pain relief ([4]; 24 hours after taking): approximately 60%
proportion of patients experiencing pain relief ([4]; […] after dosing): 52.5%
percentage of patients achieving sustained pain freedom [4, 5]: 11.2%
percentage of patients experiencing sustained pain relief [4, 5]: 43.9%
percentage of patients experiencing sustained pain freedom ([4]; from 2 hours to 48 hours): 8.8%
percentage of patients experiencing sustained pain relief ([4]; from 2 hours to 48 hours): 36.5%
median time to pain relief ([4]; human, in vivo): 4 h
Any Treatment-Emergent Adverse Event, % of subjects ([4]; single dose): (15.4%)
Any Treatment-Emergent Adverse Event, number of subjects ([4]; single dose): 67
Dizziness, % of subjects ([4]; single dose): (2.1%)
Dizziness, number of subjects ([4]; single dose): 9
Nausea, % of subjects ([4]; single dose): (4.8%)
Nausea, number of subjects ([4]; single dose): 21
Somnolence, % of subjects ([4]; single dose): (2.1%)
Somnolence, number of subjects ([4]; single dose): 9
patients who used rescue medication ([4]; through hour 24 post dose): 34.7%

Reference: patent US11471465B2 (priority 2017, dated 2022)
